# “Also recorded” adds a separate entry of the source.
# Columns and labels:
# [1] = Serum concentration time course after i.p. injection of liposomal Zn-Pc in tumour-bearing mice; assay type: in vivo, BALB/c mice; conditions: 0.5 mg kg-1 i.p. in DPPC liposomes, mice bearing MS-2 fibrosarcoma
# Excerpt: Br. J. Cancer (1987), 56, 597~~~~~~ ~~-60?TeMcilnPssLd,18 Pharmacokinetic studies with zinc(II)-phthalocyanine in tumour-bearing mice E. Reddi, G. Lo Castro, R. Biolo & G. Jori Department of Biology via Loredan 10, University of Padova, 1-35131 Padova, Italy. Summary Zn(II)-phthalocyanine (Zn-Pc) incorporated into unilamellar liposomes of dipalmitoyl- phosphatidylcholine has been injected intraperitoneally (0.5mgkg-1) to BALB/c mice bearing a transplanted MS-2 fibrosarcoma. […] Several normal tissues take up the drug within 3 hours after administration but release it almost completely after 24-48 hours. […] The results are discussed in terms of a possible use of Zn-Pc as a photosensitizer in the photodynamic therapy of tumours. Haematoporphyrin and haematoporphyrin derivative (HpD) are presently used as sensitizers for the specific destruction of tumours by photodynamic therapy (PDT) (Moan, 1986; Spikes & Jori, 1987). Although the technique is being applied for the treatment of a variety of neoplasias at both the experimental and clinical level (Dougherty, 1984), PDT is facing some problems and/or limitations. Thus, HpD as it is prepared from Hp (Lipson et al., 1961) is a complex mixture of porphyrins, whose composition is often not reproduced in different preparations and may change as a function of various experimental parameters (Bonnett et al., 1981; Dougherty, 1983). […] Moreover, PDT is usually performed by irradiation with 620-630 nm light; unfortunately, the molar absorptivity of Hp or HpD in this wavelength range is very low (< 103 M- 1 cm- 1). […] Pharmacokinetic studies The Zn-Pc was injected- i.p. into tumour-bearing mice after incorporation of the dye into small unilamellar liposomes of DPPC following the procedure described by Valduga et al. (1987): The Zn-Pc/DPPC ratio was 1:36 on a molar basis, as assessed from the weighed amount of phospholipid and absorbance measurements at 680 nm for Zn-Pc (E= 1.68 x 105 M-1 cm- at 673 nm). […]
# [2] = test system: HDL; assay: In vitro incubation of human serum with Zn-Pc incorporated into DPPC liposomes; assay type: in vitro ADME; conditions: Reddi et al., unpublished results
# [3] = test system: serum lipoproteins; assay: Sephacryl S-300 chromatography of mouse serum after Zn-Pc administration; assay type: in vivo, BALB/c mice; conditions: sera taken between 1 h and 1 week after i.p. administration; second protein peak on Sephacryl S-300
# Excerpt: Br. J. Cancer (1987), 56, 597~~~~~~ ~~-60?TeMcilnPssLd,18 Pharmacokinetic studies with zinc(II)-phthalocyanine in tumour-bearing mice E. Reddi, G. Lo Castro, R. Biolo & G. Jori Department of Biology via Loredan 10, University of Padova, 1-35131 Padova, Italy. Summary Zn(II)-phthalocyanine (Zn-Pc) incorporated into unilamellar liposomes of dipalmitoyl- phosphatidylcholine has been injected intraperitoneally (0.5mgkg-1) to BALB/c mice bearing a transplanted MS-2 fibrosarcoma. […] Several normal tissues take up the drug within 3 hours after administration but release it almost completely after 24-48 hours. […] The results are discussed in terms of a possible use of Zn-Pc as a photosensitizer in the photodynamic therapy of tumours. Haematoporphyrin and haematoporphyrin derivative (HpD) are presently used as sensitizers for the specific destruction of tumours by photodynamic therapy (PDT) (Moan, 1986; Spikes & Jori, 1987). […] Pharmacokinetic studies The Zn-Pc was injected- i.p. into tumour-bearing mice after incorporation of the dye into small unilamellar liposomes of DPPC following the procedure described by Valduga et al. (1987): The Zn-Pc/DPPC ratio was 1:36 on a molar basis, as assessed from the weighed amount of phospholipid and absorbance measurements at 680 nm for Zn-Pc (E= 1.68 x 105 M-1 cm- at 673 nm). […]
# [4] = Recovery of Zn-Pc from tumour and normal tissues of tumour-bearing mice; assay type: in vivo, BALB/c mice
# Excerpt: Br. J. Cancer (1987), 56, 597~~~~~~ ~~-60?TeMcilnPssLd,18 Pharmacokinetic studies with zinc(II)-phthalocyanine in tumour-bearing mice E. Reddi, G. Lo Castro, R. Biolo & G. Jori Department of Biology via Loredan 10, University of Padova, 1-35131 Padova, Italy. Summary Zn(II)-phthalocyanine (Zn-Pc) incorporated into unilamellar liposomes of dipalmitoyl- phosphatidylcholine has been injected intraperitoneally (0.5mgkg-1) to BALB/c mice bearing a transplanted MS-2 fibrosarcoma. […] Several normal tissues take up the drug within 3 hours after administration but release it almost completely after 24-48 hours. […] The results are discussed in terms of a possible use of Zn-Pc as a photosensitizer in the photodynamic therapy of tumours. Haematoporphyrin and haematoporphyrin derivative (HpD) are presently used as sensitizers for the specific destruction of tumours by photodynamic therapy (PDT) (Moan, 1986; Spikes & Jori, 1987). Although the technique is being applied for the treatment of a variety of neoplasias at both the experimental and clinical level (Dougherty, 1984), PDT is facing some problems and/or limitations. Thus, HpD as it is prepared from Hp (Lipson et al., 1961) is a complex mixture of porphyrins, whose composition is often not reproduced in different preparations and may change as a function of various experimental parameters (Bonnett et al., 1981; Dougherty, 1983). […] Moreover, PDT is usually performed by irradiation with 620-630 nm light; unfortunately, the molar absorptivity of Hp or HpD in this wavelength range is very low (< 103 M- 1 cm- 1). […] The ability of phthalocyanines and some of their metal derivatives to act as efficient photosensitizers of simple biological substrates (Spikes & Bommer, 1986) and cultured cells (Ben-Hur & Rosenthal, 1985; Chan et al., 1986) has been documented. Finally, Rousseau et al. (1985) have reported that tetra- sulphophthalocyanines (TSPc) can accumulate in a mammary adenocarcinoma in rats. While tetrasulphophthalocyanines are suitable for in vivo studies because of their high water-solubility, serious problems may arise owing to the low degree of purity. Actually, the presently adopted procedures for sulfonation of phthalocyanines lead to mixtures of mono-, di-, tri- and tetra-sulphonated compounds (Linstead & Weiss, 1950; Moser & Thomas, 1983). In general, underivatized phthalocyanines can be obtained with a very high purity and display a good efficiency in the generation of activated oxygen species (Maillard et al., 1980; Wu et al., 1985). […] In this paper, we describe the pharmacokinetic behaviour of liposome-bound Zn- phthalocyanine injected into. BALB/c mice bearing a transplanted fibrosarcoma. Materials and methods Chemicals Zn2 +-phthalocyanine (Zn-Pc) was supplied by Ciba-Geigy (Switzerland) and used without further purification. […] Dipalmitoyl- phosphatidylcholine (DPPC), over 98% pure, was a product of Sigma Chemical Co.; sodium dodecylsulphate (SDS) and Sephacryl S-300 were purchased from Merck and Pharmacia, respectively. […] Pharmacokinetic studies The Zn-Pc was injected- i.p. into tumour-bearing mice after incorporation of the dye into small unilamellar liposomes of DPPC following the procedure described by Valduga et al. (1987): The Zn-Pc/DPPC ratio was 1:36 on a molar basis, as assessed from the weighed amount of phospholipid and absorbance measurements at 680 nm for Zn-Pc (E= 1.68 x 105 M-1 cm- at 673 nm). […]
# [5] = Elimination pathway: analysis of faeces and urine of rats in metabolic cages; assay type: in vivo, Wistar albino rats; conditions: rapid clearance phase
# [6] = design: method as in Tomio et al. (1982); conditions: Wistar rats; ref Tomio et al. (1982); cited from earlier work
# [7] = design: method as in Tralau et al., 1987; conditions: i.v., ref Tralau et al., 1987, cited from earlier work
molecule,measurement,setting,value
"[Zn+2].c1ccc2c(c1)-c1nc-2nc2[n-]c(nc3nc([n-]c4nc(n1)-c1ccccc1-4)-c1ccccc1-3)c1ccccc21 [Zn-Pc, Zn(II)-phthalocyanine]",serum half-life (fast phase),[1],approximately 9 hours
same,time of maximum serum concentration after administration,[1],3 h
same,fraction of Zn-Pc eliminated from serum in the fast phase,[1]; biphasic clearance,approximately 60%
same,fraction of drug bound by HDL,[2],at least 70%
same,serum protein class transporting the drug,[3],specifically transported by serum lipoproteins; also recorded: specifically associated with the second protein peak
same,time of almost complete release from normal tissues,[4]; 0.5 mg kg-1 i.p.,24 to 48 h
same,time of maximum tumour concentration,"[4]; MS-2 fibrosarcoma, 0.5 mg kg-1 i.p. in DPPC liposomes",18 to 24 h
same,ratio between Zn-Pc levels in tumour and muscle,"[4]; at 18-24 h (24 h) after 0.5 mg kg-1 i.p., muscle = surrounding normal tissue",approximately 7.5
same,time of uptake by several normal tissues after administration,"[4]; liver, kidneys, spleen, lungs, muscle, 0.5 mg kg-1 i.p.",≤ 3 h
same,skin concentration of Zn-Pc,"[4]; mouse skin, between 1 h and 168 h after administration, 0.5 mg kg-1 i.p.",≤ 0.1 pug g- I tissue
same,elimination pathway from serum,[5],almost exclusively via the bile-gut pathway
CC1=C(CCC(=O)O)c2cc3[nH]c(cc4nc(cc5[nH]c(cc1n2)c(C)c5C(C)O)C(C)=C4C(C)O)c(C)c3CCC(=O)O (centres unmarked) [haematoporphyrin],fraction of totally eliminated drug recovered in the faeces,[6],at least 98%
tetrasulphophthalocyanines [TSPc],time of accumulation in tumour,[7]; fibrosarcoma implanted s.c. in the flank,1 to 3 h
same,time to complete disappearance from serum,[7],≤ 3 h

# From article PMC2001878, “Pharmacokinetic studies with zinc(II)-phthalocyanine in tumour-bearing mice” (British Journal of Cancer, 1987)
